Measurements taken from patent publication US20060199172A1, “Laminated cell culture containing hepatocytes and method for detecting endocrine-like substance” (FUJI PHOTO FILM CO., LTD., priority 2005, published 2006).

Tests used:
[1] = test system: MCF-7 cells; experiment: Detection of endocrine-like substance by number of MCF-7 cells in the laminated cell culture system; format: cell-based; conditions: laminated cell culture system (MCF-7 + rat primary hepatocytes + rat vascular endothelial cells), 0.1 μg/ml, 14 days; compared with MCF-7 only and monolayer hepatocytes + MCF-7
Procedure: 40,000 of estrogen-like substance detection cells (MCF-7) were inoculated on a 12-well microplate and cultured for 7 days under the conditions of 37° C. and 5% CO2 to prepare an MCF-7 cell layer.
The carrier for cell culture prepared in Example 1 was adhered to bottom of a 20-mm petri dish (FALCON, No. 2163) with a small amount of sterilized water, and 40,000 cells of rat primary hepatocytes (collected by the method described in “Techniques of Tissue Culture, Second edition”, Ed. by Japan Tissue Culture Association, Asakura Publishing, p. 135) were inoculated on the carrier for cell culture and cultured for 24 hours under the conditions of 37° C. and 5% CO2. In the same manner, 20,000 cells of rat vascular endothelial cells A-10 (Dainippon Pharmaceutical Co., Ltd.) were inoculated on the carrier for cell culture prepared in Example 1 and cultured for 72 hours under the conditions of 37° C. and 5% CO2.
The rat primary hepatocyte cell culture obtained was carefully placed on the MCF-7 cell layer on the 12-well microplate so that the side of the growth of the rat primary hepatocyte was on the side of the MCF-7 cells, and cultured for 24 hours under the conditions of 37° C. and 5% CO2. […]

[2] = test system: rat uterus; conditions: in vivo; cited from earlier work
[3] = test system: rat primary hepatocytes; experiment: AST release into the medium from cultured hepatocytes after adding the substance; format: cell-based; conditions: 0.1 μg/ml, measured over time
Procedure: Rat primary hepatocytes (collected by the method described in “Techniques of Tissue Culture, Second edition”, Ed. by Japan Tissue Culture Association, Asakura Publishing, p. 135) were inoculated on a 12-well microplate (FALCON, No. 3505) in an amount of 50000 cells/well and cultured for 24 hours under the conditions of 37° C. and 5% CO2. Separately, the carrier for cell culture prepared in Example 1 was adhered to bottom of a 20-mm petri dish (FALCON, No. 2163) with a small amount of sterilized water. 20,000 cells of rat vascular endothelial cells A-10 (Dainippon Pharmaceutical Co., Ltd.) were inoculated on the carrier for cell culture and cultured for 72 hours under the conditions of 37° C. and 5% CO2. As the medium, 10% FBS Eagle's MEM medium (GIBCO) was used for both cultures. The rat vascular endothelial cell culture obtained was carefully placed on the aforementioned rat primary hepatocytes on the 12-well microplate so that the cell growing side contacted with the rat primary hepatocytes, and cultured for 24 hours under the conditions of 37° C. and 5% CO2. […]
The laminated cell culture prepared in Example 2 and the hepatocytes cultured as monolayer culture was added with 0.1 μg/ml of chloropramazine, and the amount of AST released into the medium was measured over time.

Row | Compound | number of MCF-7 cells [1] | rat uterus proliferation test result [2] | amount of AST released into the medium ([3]; laminated cell culture (rat primary hepatocytes + rat vascular endothelial cells A-10)) | amount of AST released into the medium ([3]; primary hepatocytes cultured as monolayer culture)
1 | CC(C)c1cc(C(C)C)c2ccccc2c1 [2,4-diisopropylnaphthalene] | maximum value | positive | – | –
2 | CN(C)CCCN1c2ccccc2Sc2ccc(Cl)cc21 [chloropramazine] | – | – | increase in the amount of AST was observed | AST was not detected
